Data on one compound can be found in paper PMC13453992, “Comparison of ex vivo placenta perfusion and in vitro BeWo b30 cell models for assessing transfer of developmental and reproductive toxic compounds” (Archives of Toxicology, 2026).

The structures appear in SMILES notation.

This data set can be described thus: Fraction unbound in placental perfusion buffer by Rapid Equilibrium Dialysis. Type of data set: in vitro ADME. The settings on record: placenta perfusion buffer with albumin; RED 4 hours at 37 °C. On the procedure:
Free drug concentrations in perfusion buffer were determined using Rapid Equilibrium Dialysis (RED) single use plates (ThermoScientific, Rockford, USA) according to the manufacturer’s instructions. In short, placental perfusion buffer samples from multiple timepoints were loaded on one side of the RED and clean placenta perfusion buffer without albumin was added to the other side. This was incubated on a ThermoMixer C (Eppendorf Nederland B.V., Nijmegen, The Netherlands) at 250 rpm for 4 hours at 37 °C. The average from all measurements was taken to determine the average fraction unbound for each ex vivo placenta perfusion experiment.

The compound `Cc1cc(=O)n(-c2ccccc2)n1C` [Antipyrine, antipyrine] gave a Fraction unbound of 95 ± 2%.
